{"source": "paper PMC12310023", "about": "(PLOS Neglected Tropical Diseases, 2025)", "key": {"A3": {"target": "T1, A3 (Homo sapiens, UniProt P0DMS8)", "T1 sequence (P0DMS8 1-318)": "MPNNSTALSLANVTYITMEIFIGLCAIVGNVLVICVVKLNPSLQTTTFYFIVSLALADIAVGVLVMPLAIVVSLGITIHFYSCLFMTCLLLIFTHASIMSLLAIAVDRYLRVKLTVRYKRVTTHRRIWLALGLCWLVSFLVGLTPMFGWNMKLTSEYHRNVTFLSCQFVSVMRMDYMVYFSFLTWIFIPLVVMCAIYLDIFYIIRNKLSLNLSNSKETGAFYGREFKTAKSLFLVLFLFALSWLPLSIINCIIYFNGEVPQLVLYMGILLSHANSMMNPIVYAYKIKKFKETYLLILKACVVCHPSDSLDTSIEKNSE", "assay": "Cerep cellular and nuclear receptor functional assay"}, "[1]": {"system": "micronuclei in interphase cells", "assay": "In vitro micronucleus (IVMN) test"}, "CYP1A1": {"system": "CYP1A1", "assay": "CYP Induction Assay in dog hepatocytes", "settings": "30 and 100 μM, 48 h"}, "CYP3A4": {"target": "CYP3A4 (Homo sapiens, UniProt P08684)", "sequence (P08684 whole entry)": "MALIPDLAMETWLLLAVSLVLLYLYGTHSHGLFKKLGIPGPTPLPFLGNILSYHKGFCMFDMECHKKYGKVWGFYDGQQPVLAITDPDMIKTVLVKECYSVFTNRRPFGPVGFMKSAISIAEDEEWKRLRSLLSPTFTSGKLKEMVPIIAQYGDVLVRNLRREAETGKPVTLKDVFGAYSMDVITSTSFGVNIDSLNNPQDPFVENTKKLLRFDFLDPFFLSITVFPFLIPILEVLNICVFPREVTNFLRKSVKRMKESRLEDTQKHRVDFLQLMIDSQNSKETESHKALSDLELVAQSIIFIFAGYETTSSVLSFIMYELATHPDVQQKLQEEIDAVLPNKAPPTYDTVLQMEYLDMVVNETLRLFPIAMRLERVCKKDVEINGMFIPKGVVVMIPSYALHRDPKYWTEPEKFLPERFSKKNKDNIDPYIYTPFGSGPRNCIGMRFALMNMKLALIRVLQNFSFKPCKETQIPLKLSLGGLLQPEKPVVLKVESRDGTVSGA", "assay": "CYP reaction phenotyping, recombinant supersomes"}, "[2]": {"assay": "Plasma levels in IFNγ-KO mouse efficacy model"}, "zebrafish embryos": {"system": "zebrafish embryos", "assay": "Zebrafish developmental safety assay", "settings": "4 days"}, "NLuc C. parvum": {"system": "NLuc C. parvum", "assay": "NLuc C. parvum growth in HCT-8 cells (UW)", "type": "cell-based", "settings": "Cryptosporidium parvum"}, "[3]": {"assay": "Plasma protein binding, equilibrium dialysis", "settings": "rat"}, "Hepatocyte stability": {"assay": "Hepatocyte stability", "settings": "dog"}, "CYP1A2 [4]": {"target": "T2, CYP1A2 (Homo sapiens, UniProt P05177)", "T2 sequence (P05177 1-516)": "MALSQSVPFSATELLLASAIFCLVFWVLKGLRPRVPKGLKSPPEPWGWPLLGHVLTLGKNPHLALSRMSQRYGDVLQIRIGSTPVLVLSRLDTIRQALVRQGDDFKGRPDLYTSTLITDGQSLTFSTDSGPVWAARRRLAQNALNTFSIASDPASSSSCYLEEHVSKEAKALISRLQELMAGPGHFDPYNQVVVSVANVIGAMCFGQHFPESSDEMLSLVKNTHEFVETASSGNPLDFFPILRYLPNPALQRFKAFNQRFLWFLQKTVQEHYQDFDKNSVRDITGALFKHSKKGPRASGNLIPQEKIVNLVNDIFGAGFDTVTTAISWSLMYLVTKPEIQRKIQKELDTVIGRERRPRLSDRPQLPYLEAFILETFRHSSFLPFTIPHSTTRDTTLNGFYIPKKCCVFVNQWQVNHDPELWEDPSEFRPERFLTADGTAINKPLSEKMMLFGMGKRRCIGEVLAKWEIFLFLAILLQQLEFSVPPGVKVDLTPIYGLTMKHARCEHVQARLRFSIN", "assay": "biochemical"}, "[5]": {"assay": "Mouse plasma, brain and GI exposure PK, Balb/c, 30 mg/kg PO", "settings": "6 h, after BKI-1708"}, "C. hominis TU502 isolate": {"system": "C. hominis TU502 isolate", "assay": "Calibr high-content imaging Cryptosporidium panel", "type": "cell-based, Cryptosporidium hominis", "settings": "Cryptosporidium hominis"}, "CYP1A2 [6]": {"target": "T2, CYP1A2", "assay": "CYP reaction phenotyping, recombinant supersomes"}, "C. parvum CDPK1": {"target": "C. parvum CDPK1 (Cryptosporidium parvum, UniProt A3FQ16)", "sequence (A3FQ16 1-538)": "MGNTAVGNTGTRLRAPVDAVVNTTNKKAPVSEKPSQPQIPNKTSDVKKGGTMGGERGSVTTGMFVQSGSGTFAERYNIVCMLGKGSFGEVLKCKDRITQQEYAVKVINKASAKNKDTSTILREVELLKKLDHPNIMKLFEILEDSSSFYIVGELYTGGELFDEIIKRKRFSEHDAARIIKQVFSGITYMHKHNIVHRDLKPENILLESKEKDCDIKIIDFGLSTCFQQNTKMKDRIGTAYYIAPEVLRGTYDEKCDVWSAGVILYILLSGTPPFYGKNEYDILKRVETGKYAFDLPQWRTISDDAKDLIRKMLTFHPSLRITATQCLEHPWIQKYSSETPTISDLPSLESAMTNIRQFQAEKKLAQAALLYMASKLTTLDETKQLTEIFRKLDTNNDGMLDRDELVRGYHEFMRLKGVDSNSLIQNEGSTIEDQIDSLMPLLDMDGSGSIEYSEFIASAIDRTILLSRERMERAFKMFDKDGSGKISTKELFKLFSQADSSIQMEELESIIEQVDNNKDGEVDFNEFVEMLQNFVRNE", "assay": "CpCDPK1 enzyme inhibition", "type": "biochemical", "text": "[…]. […] All other methods are specified in S1 File."}, "CYP2B6": {"target": "T3, CYP2B6 (Homo sapiens, UniProt P20813)", "T3 sequence (P20813 1-491)": "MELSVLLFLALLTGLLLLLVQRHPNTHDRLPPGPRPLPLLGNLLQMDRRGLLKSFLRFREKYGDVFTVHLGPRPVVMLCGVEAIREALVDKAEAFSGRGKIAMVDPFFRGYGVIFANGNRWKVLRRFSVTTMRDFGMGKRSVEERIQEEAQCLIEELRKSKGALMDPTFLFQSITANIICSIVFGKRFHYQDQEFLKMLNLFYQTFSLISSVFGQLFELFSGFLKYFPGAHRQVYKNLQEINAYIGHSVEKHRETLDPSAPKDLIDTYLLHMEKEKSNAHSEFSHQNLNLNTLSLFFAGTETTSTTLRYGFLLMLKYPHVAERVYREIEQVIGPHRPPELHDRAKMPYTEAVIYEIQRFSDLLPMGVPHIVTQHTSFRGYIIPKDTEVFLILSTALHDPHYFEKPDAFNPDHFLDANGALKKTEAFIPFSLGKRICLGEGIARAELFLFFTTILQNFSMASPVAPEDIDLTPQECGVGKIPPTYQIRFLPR", "assay": "in vitro", "settings": "recombinant CYP2B6 supersomes"}, "[7]": {"assay": "Liver microsome stability", "settings": "monkey, pooled liver microsomes"}}, "note": "Where two headings read alike, the source gives them in different places.", "data": [{"smiles": "CC1(C)Cn2nc(-c3ccc4cc(OC5CC5)ccc4c3)c(C(N)=O)c2NC1O", "note": "(stereo not drawn) [M2]", "values": [{"measurement": "EC50", "setting": "A3", "result": "> 10", "unit": "µM"}, {"measurement": "IC50", "setting": "A3", "result": 43, "unit": "µM"}, {"measurement": "IVMN test result", "setting": "[1]", "result": "negative"}, {"measurement": "induction of CYP1A1", "setting": "CYP1A1", "result": "strong inducers"}, {"measurement": "% contribution", "setting": "CYP3A4", "result": 47.9, "unit": "%"}, {"measurement": "CLint", "setting": "CYP3A4", "result": 0.141, "unit": "µL/min/pmol"}, {"measurement": "peak plasma exposure", "setting": "[2]; M2 8 mg/kg x 3 days", "result": "3.0 ± 1.0", "unit": "µM"}, {"measurement": "peak plasma level", "setting": "[2]; M2 15 mg/kg x 3 days", "result": "6.8 ± 1.2", "unit": "µM"}, {"measurement": "peak plasma level", "setting": "[2]; M2 30 mg/kg x 3 days", "result": "7.7 ± 3.6", "unit": "µM"}, {"measurement": "concentration up to which zebrafish embryo development was not affected", "setting": "zebrafish embryos", "result": 20, "unit": "µM"}, {"measurement": "EC50", "setting": "NLuc C. parvum", "result": 0.73, "unit": "µM"}, {"measurement": "fraction unbound", "setting": "[3]", "result": 0.06}, {"measurement": "LM:hepatocyte CLint_scaled ratio", "setting": "Hepatocyte stability; liver microsomes and primary hepatocytes", "result": "<2.5"}, {"measurement": "CLint scaled", "setting": "Hepatocyte stability; primary hepatocytes", "result": 13.3, "unit": "mL/min/kg"}, {"measurement": "half-life", "setting": "Hepatocyte stability; primary hepatocytes", "result": 6.85, "unit": "h"}, {"measurement": "hepatocyte CLint", "setting": "Hepatocyte stability; primary hepatocytes", "result": 3.4, "unit": "µL/min/1e6 cells"}, {"measurement": "IC50", "setting": "CYP1A2 [4]", "result": "> 40", "unit": "µM"}, {"measurement": "M2 peak level in jejunum, ileum, cecum/colon", "setting": "[5]", "result": "> 1", "unit": "µM"}, {"measurement": "EC50", "setting": "C. hominis TU502 isolate", "result": 0.44, "unit": "µM"}, {"measurement": "EC90", "setting": "C. hominis TU502 isolate", "result": 1.67, "unit": "µM"}, {"measurement": "EC50", "setting": "C. hominis TU502 isolate; read-out: TU502 C. hominis Count EC50, Replicate 1", "result": 0.458, "unit": "µM"}, {"measurement": "EC50", "setting": "C. hominis TU502 isolate; read-out: TU502 C. hominis Count EC50, Replicate 2", "result": 0.428, "unit": "µM"}, {"measurement": "EC90", "setting": "C. hominis TU502 isolate; read-out: TU502 C. hominis Count EC90, Replicate 1", "result": 1.93, "unit": "µM"}, {"measurement": "EC90", "setting": "C. hominis TU502 isolate; read-out: TU502 C. hominis Count EC90, Replicate 2", "result": 1.41, "unit": "µM"}, {"measurement": "% contribution", "setting": "CYP1A2 [6]", "result": 47.0, "unit": "%"}, {"measurement": "CLint", "setting": "CYP1A2 [6]", "result": 0.115, "unit": "µL/min/pmol"}, {"measurement": "IC50", "setting": "C. parvum CDPK1", "result": 0.0925, "unit": "µM"}, {"measurement": "fold reduction in potency compared to BKI-1708", "setting": "C. parvum CDPK1", "result": 132, "unit": "fold"}, {"measurement": "CLint scaled", "setting": "CYP2B6", "result": 0.35, "unit": "mL/min/kg"}, {"measurement": "half-life", "setting": "CYP2B6", "result": 2.65, "unit": "h"}, {"measurement": "CLint scaled", "setting": "[7]", "result": 55, "unit": "mL/min/kg"}, {"measurement": "half-life", "setting": "[7]", "result": 0.95, "unit": "h"}, {"measurement": "microsomal CLint", "setting": "[7]", "result": 48.6, "unit": "µL/min/mg"}]}]}
